Assay results: US9498483B2, “2,3,5-trisubstituted thiophene compounds and uses thereof” (priority 2010, dated 2016)

What was measured:
[1] = tested on: HCV replicon I389luc-ubi-neo/NS3-3′/ET in ET (Huh-lucubineo-ET) cells; assay: Replicon assay (Biological Example 2), luciferase readout; type: cell-based; settings: Hepatitis C virus
Procedure, shortened: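 EC50 values come from Hill fits of % inhibition of replicon-driven firefly luciferase, relative to no-compound wells. Compounds were serially diluted (10 points, 3-fold, 0.1 nM–50 μM final, 0.5% DMSO) onto ET replicon cells and read after 48 h.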

HCV polymerase = molecular target: T1, HCV polymerase (Hepatitis C virus genotype 1b, UniProt Q9WMX2); assay: Polymerase assay of Biological Example 1 (IC50 values of Table 3); type: biochemical; settings: IC50 values of Table 3, polymerase assay of Biological Example 1; read-out: NS5B-enzyme3
T1 construct: (His)6 (C); made in house; host or cells: XL-1 cells (E. coli, by own knowledge)

[2] = ET cells, luciferase activity 48 hours after compound

SMILES	IC50 [1, 2] [nM]	IC50 (HCV polymerase) [nM]	IC50 ([1]; between 100 nM and 5.0 uM) [nM]
C[C@@H]1CN(c2ccc(S(=O)(=O)N3CC(=O)N(c4cc(-c5ccccc5)sc4C(=O)O)[C@H](C4CCCCC4)C3)cn2)CCN1 [Compound 140, 3-{(R)-2-Cyclohexyl-4-[6-((R)-3-methyl-piperazin-1-yl)-pyridine-3-sulfonyl]-6-oxo-piperazin-1-yl}-5-phenyl-thiophene-2-carboxylic acid]	≤ 100	1	–
O=C(Cc1ccccc1)NC1CC(=O)N(c2cc(-c3ccccc3)sc2C(=O)O)C(C2CCCCC2)C1 (centres unmarked) [Compound 20, 3-(2-Cyclohexyl-6-oxo-4-phenylacetylamino-piperidin-1-yl)-5-phenyl-thiophene-2-carboxylic acid]	≥ 5000	128	–
COc1ccc(S(=O)(=O)N2CC(=O)N(c3cc(-c4ccccc4)sc3C(=O)O)C(C3CCCCC3)C2)cc1 (centres unmarked) [Compound 103, 3-[2-Cyclohexyl-4-(4-methoxy-benzenesulfonyl)-6-oxo-piperazin-1-yl]-5-phenyl-thiophene-2-carboxylic acid]	–	2	100 to 5000
C[C@@H]1CN(c2ccc(S(=O)(=O)N3CC(=O)N(c4cc(-c5ccc(F)cc5)sc4C(=O)O)[C@H](C4CCCCC4)C3)cn2)C[C@H](C)O1 [Compound 278, 3-{(R)-2-Cyclohexyl-4-[6-((2R,6S)-2,6-dimethyl-morpholin-4-yl)-pyridine-3-sulfonyl]-6-oxo-piperazin-1-yl}-5-(4-fluoro-phenyl)-thiophene-2-carboxylic acid]	≤ 100	1	–
N[C@H]1CCN(c2ccc(S(=O)(=O)N3CC(=O)N(c4cc(-c5ccccc5)sc4C(=O)O)[C@H](C4CCCCC4)C3)cn2)C1 [Compound 144, 3-{(R)-4-[6-((S)-3-Amino-pyrrolidin-1-yl)-pyridine-3-sulfonyl]-2-cyclohexyl-6-oxo-piperazin-1-yl}-5-phenyl-thiophene-2-carboxylic acid]	–	2	100 to 5000
O=C(O)c1sc(-c2ccccc2)cc1N1C(=O)CN(S(=O)(=O)c2ccc(-c3ccc(F)cc3F)nc2)C[C@H]1C1CCCCC1 [Compound 205, 3-{(R)-2-Cyclohexyl-4-[6-(2,4-difluoro-phenyl)-pyridine-3-sulfonyl]-6-oxo-piperazin-1-yl}-5-phenyl-thiophene-2-carboxylic acid]	–	4	100 to 5000
CC(C)(C)C#Cc1cc(N2C(=O)C(CCCO)OC[C@H]2C2CCCCC2)c(C(=O)O)s1 (stereo partly drawn) [Compound 299, 3-[(R)-5-Cyclohexyl-2-(3-hydroxy-propyl)-3-oxo-morpholin-4-yl]-5-(3,3-dimethyl-but-1-ynyl)-thiophene-2-carboxylic acid]	≤ 100	5	–
C[C@@H]1CCC[C@H](C)N1c1ccc(S(=O)(=O)N2CC(=O)N(c3cc(-c4ccccc4)sc3C(=O)O)C(C3CCCCC3)C2)cn1 (stereo partly drawn) [Compound 126, 3-[2-Cyclohexyl-4-((2S,6R)-2,6-dimethyl-3,4,5,6-tetrahydro-2H-[1,2′]bipyridinyl-5′-sulfonyl)-6-oxo-piperazin-1-yl]-5-phenyl-thiophene-2-carboxylic acid]	≤ 100	11	–
O=C(O)c1sc(-c2ccccc2)cc1N1C(=O)CN(C(=O)c2ccccc2)C[C@H]1C1CCCCC1 [Compound 16, 3-((R)-4-Benzoyl-2-cyclohexyl-6-oxo-piperazin-1-yl)-5-phenyl-thiophene-2-carboxylic acid]	≥ 5000	420	–
CN(C)CCNc1ccc(S(=O)(=O)N2CC(=O)N(c3cc(-c4ccccc4)sc3C(=O)O)C(C3CCCCC3)C2)cn1 (centres unmarked) [Compound 81, 3-{2-Cyclohexyl-4-[6-(2-dimethylamino-ethylamino)-pyridine-3-sulfonyl]-6-oxo-piperazin-1-yl}-5-phenyl-thiophene-2-carboxylic acid]	≤ 100	9	–
CC(C)(C)C#Cc1cc(N2C(=O)CN(S(=O)(=O)c3ccccc3OC(F)(F)F)C[C@H]2C2CCCCC2)c(C(=O)O)s1 [Compound 249, 3-[(R)-2-Cyclohexyl-6-oxo-4-(2-trifluoromethoxy-benzenesulfonyl)-piperazin-1-yl]-5-(3,3-dimethyl-but-1-ynyl)-thiophene-2-carboxylic acid]	–	19	100 to 5000
O=C(O)c1sc(-c2ccccc2)cc1N1C(=O)CN(S(=O)(=O)c2cccc(F)c2)CC1C1CCCCC1 (centres unmarked) [Compound 104, 3-[2-Cyclohexyl-4-(3-fluoro-benzenesulfonyl)-6-oxo-piperazin-1-yl]-5-phenyl-thiophene-2-carboxylic acid]	–	21	100 to 5000
CC(C)(C)C#Cc1cc(N2C(=O)C(CC(=O)N3CCOCC3)OC[C@H]2C2CCCCC2)c(C(=O)O)s1 (stereo partly drawn) [Compound 294, 3-[(R)-5-Cyclohexyl-2-(2-morpholin-4-yl-2-oxo-ethyl)-3-oxo-morpholin-4-yl]-5-(3,3-dimethyl-but-1-ynyl)-thiophene-2-carboxylic acid]	–	7	100 to 5000
C[C@@H]1CN(c2ccc(S(=O)(=O)N3CC(=O)N(c4cc(-c5ccccc5)sc4C(=O)O)[C@H](C4CCCCC4)C3)cn2)C[C@H](C)N1 [Compound 150, 3-{(R)-2-Cyclohexyl-4-[6-((3R,5S)-3,5-dimethyl-piperazin-1-yl)-pyridine-3-sulfonyl]-6-oxo-piperazin-1-yl}-5-phenyl-thiophene-2-carboxylic acid]	≤ 100	4	–
C[C@@H]1COCCN1c1ccc(S(=O)(=O)N2CC(=O)N(c3cc(-c4ccccc4)sc3C(=O)O)[C@H](C3CCCCC3)C2)cn1 [Compound 225, 3-{(R)-2-Cyclohexyl-4-[6-((R)-3-methyl-morpholin-4-yl)-pyridine-3-sulfonyl]-6-oxo-piperazin-1-yl}-5-phenyl-thiophene-2-carboxylic acid]	≤ 100	1	–
CC(C)(C)C#Cc1cc(N2C(=O)CN(S(=O)(=O)c3cccc(C#N)c3)C[C@H]2C2CCCCC2)c(C(=O)O)s1 [Compound 259, 3-[(R)-4-(3-Cyano-benzenesulfonyl)-2-cyclohexyl-6-oxo-piperazin-1-yl]-5-(3,3-dimethyl-but-1-ynyl)-thiophene-2-carboxylic acid]	–	7	100 to 5000
CC(C)(C)C#Cc1cc(N2C(=O)CNCC2C2CCCCC2)c(C(=O)O)s1 (centres unmarked) [Compound 175, 3-(2-Cyclohexyl-6-oxo-piperazin-1-yl)-5-(3,3-dimethyl-but-1-ynyl)-thiophene-2-carboxylic acid]	≥ 5000	> 10000	–
CN1CCOc2cc(S(=O)(=O)N3CC(=O)N(c4cc(-c5ccccc5)sc4C(=O)O)C(C4CCCCC4)C3)cnc21 (centres unmarked) [Compound 99, 3-[2-Cyclohexyl-4-(4-methyl-3,4-dihydro-2H-pyrido[3,2-b][1,4]oxazine-7-sulfonyl)-6-oxo-piperazin-1-yl]-5-phenyl-thiophene-2-carboxylic acid]	≤ 100	2	–
Cn1ccc(S(=O)(=O)N2CC(=O)N(c3cc(C#CC(C)(C)C)sc3C(=O)O)[C@H](C3CCCCC3)C2)n1 [Compound 193, 3-[(R)-2-Cyclohexyl-4-(1-methyl-1H-pyrazole-3-sulfonyl)-6-oxo-piperazin-1-yl]-5-(3,3-dimethyl-but-1-ynyl)-thiophene-2-carboxylic acid]	≤ 100	1	–
Cc1ccc(-c2cc(N3C(=O)CN(S(=O)(=O)c4ccc(N5CC6CCC(C5)O6)nc4)C[C@H]3C3CCCCC3)c(C(=O)O)s2)cc1 [Compound 198, 3-{(R)-2-Cyclohexyl-4-[6-(8-oxa-3-aza-bicyclo[3.2.1]oct-3-yl)-pyridine-3-sulfonyl]-6-oxo-piperazin-1-yl}-5-p-tolyl-thiophene-2-carboxylic acid]	≤ 100	1	–
CCN(CC)c1ccc(S(=O)(=O)N2CC(=O)N(c3cc(-c4ccccc4)sc3C(=O)O)[C@H](C3CCCCC3)C2)cn1 [Compound 177, 3-[(R)-2-Cyclohexyl-4-(6-diethylamino-pyridine-3-sulfonyl)-6-oxo-piperazin-1-yl]-5-phenyl-thiophene-2-carboxylic acid]	≤ 100	2	–
COCCNc1ccc(S(=O)(=O)N2CC(=O)N(c3cc(-c4ccccc4)sc3C(=O)O)C(C3CCCCC3)C2)cn1 (centres unmarked) [Compound 78, 3-{2-Cyclohexyl-4-[6-(2-methoxy-ethylamino)-pyridine-3-sulfonyl]-6-oxo-piperazin-1-yl}-5-phenyl-thiophene-2-carboxylic acid]	≤ 100	5	–
Cc1ccc(-c2cc(N3C(=O)CN(S(=O)(=O)c4ccc(N5CCOC[C@H]5C)nc4)C[C@H]3C3CCCCC3)c(C(=O)O)s2)cc1 [Compound 197, 3-{(R)-2-Cyclohexyl-4-[6-((R)-3-methyl-morpholin-4-yl)-pyridine-3-sulfonyl]-6-oxo-piperazin-1-yl}-5-p-tolyl-thiophene-2-carboxylic acid]	≤ 100	4.6	–
C[C@H]1CN(c2ccc(S(=O)(=O)N3CC(=O)N(c4cc(-c5ccccc5)sc4C(=O)O)[C@H](C4CCCCC4)C3)cn2)CCN1 [Compound 145, 3-{(R)-2-Cyclohexyl-4-[6-((S)-3-methyl-piperazin-1-yl)-pyridine-3-sulfonyl]-6-oxo-piperazin-1-yl}-5-phenyl-thiophene-2-carboxylic acid]	≤ 100	1	–
CC(C)(C)OC(=O)N[C@H]1CCCN(c2ccc(S(=O)(=O)N3CC(=O)N(c4cc(-c5ccccc5)sc4C(=O)O)[C@H](C4CCCCC4)C3)cn2)C1 [Compound 158, 3-[(R)-4-((S)-3-tert-Butoxycarbonylamino-3,4,5,6-tetrahydro-2H-[1,2′]bipyridinyl-5′-sulfonyl)-2-cyclohexyl-6-oxo-piperazin-1-yl]-5-phenyl-thiophene-2-carboxylic acid]	≤ 100	2	–
